Reference: patent US20220168301A1, “METHODS FOR TREATING SYMPTOMATIC ORTHOSTATIC HYPOTENSION” (Cerecor Inc, priority 2019, published 2022)

Experiments:
healthy subjects [1] = test: 24-hour ambulatory blood pressure monitoring (ABPM), 7-day once-daily dosing study in healthy subjects; type: in vivo, human
Experimental: The effects of CERC-301 were assessed in a randomized, double-blind, placebo-controlled, parallel-group, three-part safety, pharmacokinetic, and pharmacodynamic study in healthy human subjects.
One of the primary objective of the study was to investigative the dose-response relationship between CERC-301 and pharmacodynamic (PD) effects on blood pressure [BP] in healthy subjects. Secondary objectives included the investigation of the safety and tolerability of CERC-301 over 7 days of once-daily administration and the investigation of a single dose and 7-day repeated dose pharmacokinetic (PK) profiles of CERC-301, and to explore sub-group (age or gender) effects on other safety parameters, such as adverse events (AEs).
(§1) The study was a randomized, double-blind, placebo-controlled parallel-group, three-part, repeated dose in-patient study investigating the safety, tolerability, PK, and PD of CERC-301 in healthy subjects.
(§2) Part 1: After the screening period, healthy, young male and female subjects were randomly assigned to dose groups as shown in Table 1. Randomized subjects participated in a time-matched baseline BP monitoring day (Day −1), once-daily dosing with study drug during which safety, PK, and PD assessments were performed on Days 1-7, discharge on Day 8, a follow-up period for PK and safety on Days 9-11, and end-of-study visit on Day 16. Each parallel dose group was balanced for gender (approximately equal number of males and females in each group).
as §2, with “2:” for “1:”, “young and intermediate age” for “young”, “2.” for “1.”
Part 3: After the screening period, healthy, young and elderly male and female subjects were randomly assigned to dose groups as shown in Table 3.
as §2, with “Randomized” for “Part 1: After the screening period, healthy, young male and female subjects were randomly assigned to dose groups as shown in Table 1. Randomized”
(§3) Subjects received 8, 12, 16 or 20 mg CERC-301 or matching placebo once-daily for 7 days.
PD endpoints included the following […]: • 24-hour Ambulatory Blood Pressure Monitoring (ABPM) • Observed values and time matched change from baseline (pre-dose) of 24-hour ABPM • Mean 24 hours, Sleep and Awake systolic and diastolic BPs. • Mean Arterial Pressure (MAP), pulse pressure, and heart rate. • Observed values and change from baseline of sub-scale scores and Total Mood Disturbance (TMD) scores from Profiles of Mood States (POMS)

healthy subjects [2] = test: Safety and tolerability over 7 days of once-daily administration in healthy subjects; type: in vivo, human
Experimental: as §1, §3
The safety variables evaluated included treatment-emergent adverse events (TEAE), vital signs, clinical safety laboratories (chemistry, hematology, urinalysis), electrocardiograms (ECGs), physical examinations, Clinician Administered Dissociated States Scale (CADSS) and Columbia-Suicide Severity Rating Scale (C-SSRS).

[3] = test system: patients with symptomatic nOH associated with Parkinson's disease; test: Safety and tolerability of single doses in patients with nOH associated with Parkinson's disease; type: in vivo, human
Experimental: This study was designed as a randomized, double-blind, placebo-controlled trial in order to distinguish effects of active treatment in an efficient and unbiased manner. As CERC-301 had not previously been tested in subjects with symptomatic OH, a single escalating dose study design was used to ensure safety of the study participants.
Subjects were dosed on five separate occasions, approximately 7-10 days apart, with one of four single escalating doses of CERC-301 or placebo and underwent an orthostatic challenge test to assess the safety, tolerability, effect on blood pressure, and PK. Subjects also completed a symptomatic assessment following the orthostatic challenge. Subjects were enrolled and randomized based on the dosing schedule in Table 4:
AEs were monitored and the following information recorded: • Verbatim complaint • Whether the event was treatment-emergent (TEAE) • Whether event was serious (SAE) • Date of onset • Severity of event • Relationship of event to study drug • Action taken regarding study drug due to the event • Clinical outcome of event (resolved or ongoing) • If resolved, provide date of resolution
The following vital signs were measured during the study: • Blood pressure (systolic and diastolic [mm Hg]) • Heart rate (beats per minute [bpm]) • Oral body temperature (°C)
Two analysis sets were used. […] The SAF consists of all randomized subjects who receive at least one dose of study medication. […] The PKAS consists of all subjects from the SAF for whom sufficient plasma concentration data are available to facilitate the calculation of at least one PK parameter.
All safety and tolerability data are summarized using descriptive statistics. They are listed and summarized in tabular and/or graphical form. […] Descriptive statistics for laboratory values and their change or shift from baseline for each dose group are provided for each scheduled time of collection. Descriptive statistics for vital signs and their change from baseline for each dose group are provided for each scheduled time of collection. The placebo subjects are combined into a single placebo group for summary presentations.

[4] = test system: patients with moderate Parkinson's disease; conditions: single oral dose 7 mg; cited from earlier work
[5] = 20 mg, 24 hours postdose, after 7 days of dosing
[6] = whole study, active and placebo not separated

Cc1ccc(COC(=O)N2CC[C@H](CNc3ncccn3)[C@H](F)C2)cc1 [CERC-301]
Average nighttime SBP increase (healthy subjects [1]; 16 mg, Day 7): 2 mm Hg | Mean hourly average DBP change from baseline (healthy subjects [1]; [5]): approximately 10 mm Hg | Mean hourly average SBP change from baseline (healthy subjects [1]; [5]): approximately 14 mm Hg | Maximum average hourly daytime ambulatory DBP (healthy subjects [1]; 20 mg, Day 1): approximately 15 mm Hg | Maximum average hourly daytime ambulatory SBP (healthy subjects [1]; 20 mg, Day 1): approximately 16 mm Hg | Maximum average hourly daytime ambulatory DBP (healthy subjects [1]; 20 mg, Day 4): approximately 15 mm Hg | Maximum average hourly daytime ambulatory SBP (healthy subjects [1]; 20 mg, Day 4): ~21 mm Hg | Maximum average hourly daytime ambulatory DBP (healthy subjects [1]; 20 mg, Day 7): ~19 mm Hg | Maximum average hourly daytime ambulatory SBP (healthy subjects [1]; 20 mg, Day 7): ~24 mm Hg | Changes in vital signs, ECGs or physical examination attributable to CERC-301 (healthy subjects [2]; 8 to 20 mg for 7 days): no clinically significant adverse changes | Dose-related or age-related differences in TEAEs or related AEs (healthy subjects [2]; 8 to 20 mg for 7 days): no clear-cut dose-related or age-related differences | Most common related AEs (each in at least two subjects receiving CERC-301) (healthy subjects [2]; 8 to 20 mg for 7 days): feeling abnormal, headache, feeling of relaxation, elevated mood, dizziness, logorrhea, sedation, visual impairment, energy increased, palpitations, disturbance in attention, hypervigilance, confusional state, oral paresthesia, anxiety, chest pain, depressed mood, diarrhea, and balance disorder | Laboratory abnormalities attributable to CERC-301 (healthy subjects [2]; except ALT/AST increases in one elderly and elevated prolactin in one young, both 12 mg): no clinically significant laboratory abnormalities | Tolerability (healthy subjects [2]; repeated daily doses of 8, 12, 16 and 20 mg for 7 days): generally well tolerated | Safety and tolerability ([3]; single doses of 8, 12, 16 and 20 mg): safe and well tolerated | Signals of increased heart rate or supine hypertension during the recumbent phase of the OST, active versus placebo ([3]; single doses of 8 to 20 mg): No signals of increased heart rate or, supine hypertension | SAEs ([3]; whole study): No SAEs were reported | AE reported: blurred vision [3, 6]: 14.3% | AE reported: dizziness [3, 6]: 7.1% | AE reported: fall [3, 6]: 14.3% | AE reported: hypoaesthesia [3, 6]: 7.1% | AE reported: hypotension [3, 6]: 7.1% | AE reported: memory impairment [3, 6]: 7.1% | AE reported: nasal congestion [3, 6]: 7.1% | AE reported: on/off phenomenon [3, 6]: 7.1% | AE reported: somnolence [3, 6]: 7.1% | AE reported: squamous cell carcinoma [3, 6]: 7.1% | Plasma concentration relative to target [4]: > 400 nM | Systolic and diastolic blood pressure relative to placebo [4]: increases in systolic and diastolic blood pressure relative to placebo | Tolerability [4]: generally well tolerated
